Patent publication US20260272967A1, “TRADITIONAL CHINESE MEDICINE COMPOSITION FOR TREATING LUNG INFLAMMATION RELATED DISEASES AND ITS USES” (XIYUAN HOSPITAL, CHINA ACADEMY OF CHINESE MEDICAL SCIENCES, priority 2023, published 2026)
Like-named read-outs stand apart in the source and are kept apart here.

How the values were obtained:
RAW264.7 cells = conditions: reported by NICM Health Research Institute; cited from earlier work
[1] = tested on: LPS-induced RAW264.7 cells; assay: Inhibition of NO release in LPS-induced RAW264.7 cells, with Chou-Talalay synergy analysis (Experimental Example 1); type: cell-based, mouse; conditions: for NO Production Rate: LPS 50 ng/mL 24 h, LPS without drug = 100%; for IC50: read-out: IC50 (concentration at which NO production is 50%), LPS-induced RAW264.7 cells, NO release
Description: RAW264.7 cells were seeded in a 96-well cell culture plate at 1×10^6/mL and cultured for 24 h. […] The cells were pretreated with the serially diluted drug solutions for 2 h, and then treated with LPS (50 ng/mL) for 24 h. The cell supernatant was aspirated, the NO release level in the supernatant was determined, and the IC50 values of the four groups of drugs inhibiting NO release were calculated. The dose-effect relationships of the three single components and the three-component composition were imported into CalcuSyn software 2.0 (Biosoft, USA), and the inhibition rate-combination index plot (Fa-CI) was generated using the Chou-Talalay mathematical model. The Fa-CI plot can reflect the relationship between the CI value and the effective level of a certain biological index (i.e., the inhibitory effect on NO). The intensity and nature of the interaction between drugs can be quantitatively judged by the value of CI: CI>1 indicates antagonism, CI=1 indicates additive effect, and CI<1 indicates synergism.

ALI mice induced by LPS [2] = assay: Mouse acute lung injury model: lung index, W/D, BALF leukocytes and protein (Experimental Example 5); type: in vivo; conditions: three-component 398 mg/kg intragastric, dexamethasone 5 mg/kg i.p.
Description: (§1) Establishment of mouse acute lung injury model: Mice were anesthetized with isoflurane, and LPS (1 mg/kg) was instilled into one side of the nasal cavity. After instillation, the mice were stood upright quickly, and returned to the original feeding cage after waking up to complete modeling.
(§2) All drugs were administered 0.5 h after establishing the mouse ALI model with LPS.
24 h after model establishment, mice were anesthetized with pentobarbital sodium and sacrificed by abdominal aorta bloodletting. Lung tissues were dissected and weighed, and the lung coefficient (lung tissue weight/mouse body weight) was calculated; the right upper lobe of the mouse lung was fixed in formalin, and pathological sections were made and stained with HE to observe pathological changes; the middle and lower lobes of the right lung of the mouse were weighed (wet weight), placed in a 60° C. oven to dry to constant weight, and weighed (dry weight), and the wet-to-dry weight ratio (wet weight/dry weight, W/D) was calculated. The right bronchus of the mouse was ligated, the left lobe of the lung was taken, and bronchoalveolar lavage fluid (BALF) was recovered after lavage with 0.8 mL PBS for three times. The total number of leukocytes and total protein concentration were determined using an automatic cell counter.

ALI mice induced by LPS [3] = assay: Mouse acute lung injury model: BALF inflammatory factors and lung pathology (Experimental Example 6); type: in vivo; conditions: three-component 398 mg/kg intragastric, dexamethasone 5 mg/kg i.p.
Description: as §1, §2
The levels of inflammatory factors IL-1B, IL-6 and TNF-α in BALF were determined in strict accordance with the instructions of the inflammatory factor detection kit.
The right upper lobe of the mouse lung was fixed with tissue fixative for 72 hours, and HE-stained sections were prepared by paraffin embedding, sectioning, dehydration and staining. Lung tissue lesions were observed under a microscope.

Row | Structure (SMILES) | IC50 ([1]; Mus musculus) | inhibiting LPS-induced NO release from RAW264.7 cells (RAW264.7 cells) | NO Production Rate ([1]; 1.63 μM) | NO Production Rate ([1]; 3.125 μM) | NO Production Rate ([1]; 6.25 μM) | NO Production Rate ([1]; 12.5 μM) | NO Production Rate ([1]; 25 μM) | NO Production Rate ([1]; 50 μM) | NO Production Rate ([1]; 100 μM) | NO Production Rate ([1]; 0.86 μM) | further results
1 | CCCCC/C=C/C(=O)CCc1ccc(O)c(OC)c1 [6-Shogaol, 6-shogaol] |  | a certain effect | 60.42 ± 6.14% | 56.75 ± 6.97% | 41.41 ± 2.75% | 11.42 ± 2.69% | 8.67 ± 0.84% | 6.11 ± 2.41% | 5.89 ± 3.38% |  | IC50 [1]: 3.23 ± 0.42 µM
2 | C[C@@H]1C[C@H]2[C@@H]3CCC4=CC(=O)C=C[C@]4(C)[C@@]3(F)[C@@H](O)C[C@]2(C)[C@@]1(O)C(=O)CO [Dexamethasone, dexamethasone] |  |  |  |  |  |  |  |  |  |  | BALF Leukocytes (ALI mice induced by LPS [2]; 24 h after LPS): 18.760 ± 7.468 ×10^5 cells/mL; BALF Protein Concentration (ALI mice induced by LPS [2]; 24 h after LPS): 0.814 ± 0.183 mg/mL; Lung Index (BW) (ALI mice induced by LPS [2]; lung tissue weight/body weight, 24 h after LPS 1 mg/kg intranasal, 0.5 h after LPS): 0.816 ± 0.089; Wet-to-Dry Weight Ratio (W/D) (ALI mice induced by LPS [2]; right lung lobes, 24 h after LPS): 4.701 ± 0.221; IL-1β in BALF (ALI mice induced by LPS [3]; ALI mice, 24 h after LPS): 186.475 ± 76.810 pg/mL; IL-6 in BALF (ALI mice induced by LPS [3]; ALI mice, 24 h after LPS): 819.19 ± 506.63 pg/mL; TNF-α in BALF (ALI mice induced by LPS [3]; ALI mice, 24 h after LPS): 345.080 ± 239.594 pg/mL; Pathological Score (ALI mice induced by LPS [3]; lung tissue, HE staining): 6.70 ± 2.50
3 | C=C1CC[C@@H]2[C@](C)(CO)[C@H](O)CC[C@@]2(C)[C@@H]1C/C=C1/C(=O)OC[C@H]1O [andrographolide] |  | a certain effect |  |  |  |  |  |  |  |  | 
4 | O=c1cc(-c2ccc(O)c(O)c2)oc2cc(O)cc(O)c12 [luteolin] |  | a certain effect |  |  |  |  |  |  |  |  | 

Second part, led by results:

Row | IC50 ([1]; Mus musculus) | Structure (SMILES) | inhibiting LPS-induced NO release from RAW264.7 cells (RAW264.7 cells) | NO Production Rate ([1]; 1.63 μM) | NO Production Rate ([1]; 3.125 μM) | NO Production Rate ([1]; 6.25 μM) | NO Production Rate ([1]; 12.5 μM) | NO Production Rate ([1]; 25 μM) | NO Production Rate ([1]; 50 μM) | NO Production Rate ([1]; 100 μM) | NO Production Rate ([1]; 0.86 μM) | further results
5 | 11.3 ± 1.32 µM | O=c1cc(-c2ccccc2)oc2cc(O)c(O)c(O)c12 [Baicalein, baicalein] | a certain effect |  |  |  | 60.52 ± 5.14% | 40.47 ± 6.87% | 7.77 ± 3.47% | 2.44 ± 2.33% | 90.14 ± 7.64% | 
6 | 78.8 ± 11.9 µM | CC1(C)[C@@H](O[C@H]2O[C@H](C(=O)O)[C@@H](O)[C@H](O)[C@H]2O[C@@H]2O[C@H](C(=O)O)[C@@H](O)[C@H](O)[C@H]2O)CC[C@]2(C)[C@H]3C(=O)C=C4[C@@H]5C[C@@](C)(C(=O)O)CC[C@]5(C)CC[C@@]4(C)[C@]3(C)CC[C@@H]12 [Glycyrrhizic Acid, glycyrrhizic acid] | a certain effect | 88.06 ± 5.38% | 86.28 ± 2.29% | 81.79 ± 5.81% | 80.67 ± 4.74% | 71.04 ± 3.50% | 55.35 ± 3.98% | 43.54 ± 6.10% | 105.02 ± 8.02% | 
